# Data as given in patent US20090118286A1, “Heterobicyclic Acrylamides” (Bayer Cropscience AG, priority 2005, published 2009).
# Assay: log P determination by HPLC (EEC Directive 79/831 Annex V.A8, gradient method)
# Type: physicochemical
SMILES,Physical data: logP,Physical data (logP),Physical data: log P
O=C(/C=C/c1c(-c2cccc(Cl)c2)nc2sc(C(F)(F)F)nn12)NC1CCCC1 [Example 0084],,4.13,
COCc1nn2c(/C=C/C(=O)NCC(C)(C)C)c(-c3ccccc3Cl)nc2s1 [Example 0819],3.05,,
CCN(CC)C(=O)/C=C/c1c(-c2ccc(Cl)cc2)nc2sc(C(F)(F)F)nn12 [Example 0070],,4.16,
COCc1nn2c(/C=C/C(=O)NC3CC3)c(-c3ccccc3Cl)nc2s1 [Example 0829],2.2,,
Cc1ccccc1-c1nc2sc(C(F)(F)F)nn2c1/C=C/C(=O)NC1CCC1 [Example 0234],,,3.41
CCC(C)NC(=O)/C=C/c1c(-c2ccccc2Cl)nc2sc(-c3ccc(C(F)(F)F)cc3)nn12 (centres unmarked) [Example 0847],4.33,,
COc1ccc(-c2nc3sc(C(F)(F)F)nn3c2/C=C/C(=O)NC(C)C)cc1OC [Example 0652],2.85,,
COCc1nn2c(/C=C/C(=O)NCC(C)C)c(-c3ccccc3Cl)nc2s1 [Example 0816],2.71,,
O=C(/C=C/c1c(-c2ccc(Cl)cc2)nc2sc(C(F)(F)F)nn12)NC1CC1 [Example 0011],,3.31,
O=C(/C=C/c1c(-c2cccc(C(F)(F)F)c2)nc2sc(C(F)(F)F)nn12)NOCC1CC1 [Example 0424],,,3.81
CC(C)CCNC(=O)/C=C/c1c(-c2ccccc2Cl)nc2sc(-c3ccc(C(F)(F)F)cc3)nn12 [Example 0842],4.72,,
CCC(CC)NC(=O)/C=C/c1c(-c2cccc(C(F)(F)F)c2)nc2sc(C(F)(F)F)nn12 [Example 0428],,,4.41
"CC(NC(=O)/C=C/c1c(-c2ccccc2Cl)nc2sc(C(F)(F)F)nn12)C(F)(F)F (single isomer, unassigned) [Example 0184]",,3.63,
COCc1nn2c(/C=C/C(=O)NC3CCCC3)c(-c3ccccc3Cl)nc2s1 [Example 0831],2.8,,
C=CCN(C)C(=O)/C=C/c1c(-c2cccc(C(F)(F)F)c2)nc2sc(C(F)(F)F)nn12 [Example 0431],,,4.22
CC(NC(=O)/C=C/c1c(-c2ccc(Cl)cc2)nc2sc(C(F)(F)F)nn12)c1ccccn1 (centres unmarked) [Example 0052],,2.77,
CCC(NC(=O)/C=C/c1c(-c2ccc(Cl)cc2)nc2sc(C(F)(F)F)nn12)c1ccccc1 (centres unmarked) [Example 0039],,4.56,
Cc1ccccc1-c1nc2sc(C(F)(F)F)nn2c1/C=C/C(=O)NCC1CC1 [Example 0237],,,3.37

SMILES,Physical data: logP,Physical data (logP),Physical data: log P
CC(C)(C)c1nn2c(/C=C/C(=O)NCC(F)(F)C(F)(F)F)c(-c3ccccc3Cl)nc2s1 [Example 0814],4.08,,
CC(NC(=O)/C=C/c1c(-c2cccc(C(F)(F)F)c2)nc2sc(C(F)(F)F)nn12)C(F)(F)F (centres unmarked) [Example 0388],,,4.27
CC(C)(C)NC(=O)/C=C/c1c(-c2ccc(F)cc2)nc2sc(C(F)(F)F)nn12 [Example 0302],,,3.81
CC(C)(C)c1nn2c(/C=C/C(=O)Nc3ccc(OC(F)(F)F)cc3)c(-c3ccccc3Cl)nc2s1 [Example 0812],5.13,,
CC(ONC(=O)/C=C/c1c(-c2ccc(Cl)cc2)nc2sc(C(F)(F)F)nn12)c1ccccc1 (centres unmarked) [Example 0062],,4.18,
CNC(=O)/C=C/c1c(-c2ccc(Cl)cc2)nc2sc(C(F)(F)F)nn12 [Example 0005],,2.88,
CC(C)NC(=O)/C=C/c1c(-c2ccccc2Cl)nc2sc(C(C)(C)C)nn12 [Example 0802],3.33,,
CCC(C)NC(=O)/C=C/c1c(-c2ccc(F)cc2)nc2sc(C(F)(F)F)nn12 (centres unmarked) [Example 0309],,,3.55
COCc1nn2c(/C=C/C(=O)NCCC(C)C)c(-c3ccccc3Cl)nc2s1 [Example 0820],3.12,,
CC(C)(C)NC(=O)/C=C/c1c(-c2cccc(C(F)(F)F)c2)nc2sc(C(F)(F)F)nn12 [Example 0373],,,4.41
CCC(NC(=O)/C=C/c1c(-c2ccc(OC)c(OC)c2)nc2sc(C(F)(F)F)nn12)c1ccccc1 (centres unmarked) [Example 0684],3.76,,
CC(C)C(C)NC(=O)/C=C/c1c(-c2ccc(F)cc2)nc2sc(C(F)(F)F)nn12 (centres unmarked) [Example 0316],,,3.81
CC(ONC(=O)/C=C/c1c(-c2cccc(C(F)(F)F)c2)nc2sc(C(F)(F)F)nn12)c1ccccc1 (centres unmarked) [Example 0426],,,4.37
COc1ccc(-c2nc3sc(C(F)(F)F)nn3c2/C=C/C(=O)N2CCCCC2)cc1OC [Example 0717],3.41,,
CCCC(C)NC(=O)/C=C/c1c(-c2ccc(F)cc2)nc2sc(C(F)(F)F)nn12 (centres unmarked) [Example 0310],,,3.9
COc1ccc(-c2nc3sc(C(F)(F)F)nn3c2/C=C/C(=O)NCC2CC2)cc1OC [Example 0660],2.95,,
O=C(/C=C/c1c(-c2cccc(C(F)(F)F)c2)nc2sc(C(F)(F)F)nn12)N1CCOCC1 [Example 0436],,,3.55

# The next lines start with the values.
Physical data: logP,Physical data (logP),Physical data: log P,SMILES
2.35,,,CCC(C)NC(=O)/C=C/c1c(-c2ccccc2Cl)nc2scc(C)n12 (centres unmarked) [Example 0891]
4.62,,,O=C(/C=C/c1c(-c2ccccc2Cl)nc2sc(-c3ccc(C(F)(F)F)cc3)nn12)NCC(F)(F)C(F)(F)F [Example 0858]
2.74,,,Cc1csc2nc(-c3ccccc3Cl)c(/C=C/C(=O)NC3CCCCC3)n12 [Example 0898]
,4.56,,O=Cc1c(-c2ccc(Oc3ccc(Cl)cc3)cc2)nc2sc(C(F)(F)F)nn12 [IVA122]
5,,,O=C(/C=C/c1c(-c2ccccc2Cl)nc2sc(-c3ccc(C(F)(F)F)cc3)nn12)NCC(F)(F)C(F)(F)C(F)(F)F [Example 0859]
,2.84,,O=C(O)/C=C/c1c(-c2ccc(F)cc2Cl)nc2sc(C(F)(F)F)nn12 [VA-9]
3.71,,,O=C(/C=C/c1c(-c2ccc(F)cc2Cl)nc2sc(C(F)(F)F)nn12)NC1(C(F)(F)F)CC1 [Example 0913]
3.82,,,CC(C)NC(=O)/C=C/c1c(-c2ccccc2Cl)nc2sc(Br)cn12 [Example 0908]
2.84,,,Cc1csc2nc(-c3ccccc3Cl)c(/C=C/C(=O)NC(C)C(C)(C)C)n12 (centres unmarked) [Example 0892]
2.4,,,Cc1csc2nc(-c3ccccc3Cl)c(/C=C/C(=O)NCC(C)C)n12 [Example 0882]
2.26,,,Cc1csc2nc(-c3ccccc3Cl)c(/C=C/C(=O)NC3CCC3)n12 [Example 0896]
3.81,,,CC(NC(=O)/C=C/c1c(-c2nccs2)nc2sc(C(F)(F)C(F)(F)F)nn12)C(F)(F)F (racemic) [Example 0987]
,2.1,,O=C(O)/C=C/c1c(-c2cccnc2Cl)nc2sc(C(F)(F)F)nn12 [VA118]
,2.41,,O=C(O)/C=C/c1c(-c2ccccc2Cl)nc2sc(C(F)F)nn12 [VA-14]
,3.25,,O=C(O)/C=C/c1c(-c2csc(Cl)n2)nc2sc(C(F)(F)C(F)(F)F)nn12 [VA136]
4.21,,,O=C(/C=C/c1c(-c2ccccc2Cl)nc2sc(-c3ccc(C(F)(F)F)cc3)nn12)NC1CCC1 [Example 0852]
,2.55,,O=C(O)/C=C/c1c(-c2ccccc2F)nc2sc(C(F)(F)F)nn12 [VA-8]
3.57,,,Cc1cn2c(/C=C/C(=O)Nc3ccc(Cl)cc3)c(-c3ccccc3Cl)nc2s1 [Example 0877]
